According to patent US10337071B2, “Oncogene NRF2” (National Cancer Center, priority 2008, dated 2019):

What was measured:
Format in all cases: cell-based
[1] = tested on: esophageal cancer cell lines with NRF2 gene abnormality (KYSE-50, KYSE-70, KYSE-180); experiment: Suppression of proliferation by rapamycin treatment, MTS assay; settings: rapamycin 1, 5, 10 nM, 72 hours
Protocol: (§1) Suppression of proliferation by rapamycin treatment was examined for the esophageal cancer cell lines without NRF2 gene abnormality (KYSE-30, KYSE-140, KYSE-170, KYSE-270) and for the cell lines with NRF2 gene abnormality (KYSE-50, KYSE-70, KYSE-180). The 7 esophageal cancer cell lines were seeded onto 96 well plates at 5000 cells/well, and 0, 1, 5, and 10 nM of rapamycin were added. After incubated at 37 degrees C. for 72 hours, viable cells were counted based on the NADH activity (MTS assay, CellTiter 96 Aqueous One Solution Cell Proliferation Assay, Promega).

[2] = tested on: head and neck cancer cell lines with NRF2 gene abnormality (HO-1-u-1); experiment: as above
Protocol: as §1
(§2) In addition, growth suppression effect of rapamycin treatment to the lung cancer cell lines without NRF2 gene abnormality (SQ-5, QG-56) or with NRF2 gene abnormality (LK-2, EBC-1) and to the head and neck cancer cell lines without NRF2 gene abnormality (HO-1-N-1, HSC2) or with NRF2 gene abnormality (HO-1-u-1) were also examined by similar method for the above esophageal cancer cell lines.

[3] = tested on: lung cancer cell lines with NRF2 gene abnormality (LK-2, EBC-1); experiment: as above
Protocol: as §1, §2

[4] = tested on: KYSE-180 esophageal cancer cell line (NRF2 gene mutation); experiment: Growth suppression by dsRNA against NRF2, MTS assay; settings: KYSE-180, 72 hours, vs control dsRNA
Protocol: (§3) NRF2 gene expression was suppressed by dsRNA for the esophageal cancer cell lines that have NRF2 gene mutation (KYSE-50 and KYSE-180). Esophagus cancer cell lines were seeded into 96 well plates at 5000 cells/well, and control dsRNA (ON-TARGET plus Non-targeting Pool, Dharmacon, D-001810-10) or dsRNA against NRF2 (NRF2 dsRNA) (5′-[…]-3′ (SEQ ID NO 20) and 5′-p[…]-3′ (SEQ ID NO 21)) were introduced using Lipofectamine (Lipofectamine RNAiMax, Invitrogen). Then they were incubated at 37 degrees C. for 72 hours. Then, the number of viable cells was determined by a MTS assay for the NADH activity (CellTiter 96 Aqueous One Solution Cell Proliferation Assay, Promega).

[5] = tested on: KYSE-50 esophageal cancer cell line (NRF2 gene mutation); experiment: as above; settings: KYSE-50, 72 hours, vs control dsRNA
Protocol: as §3

Compound	cell proliferation, ratio of cell counts, % of the control (0 nM = 100%) [1]	cell proliferation, ratio of cell counts, % of the control (0 nM = 100%) [2]	cell proliferation, ratio of cell counts, % of the control (0 nM = 100%) [3]	suppressive effect on proliferation compared with the control [4] [%]	suppressive effect on proliferation compared with the control [5] [%]
CO[C@H]1C[C@@H]2CC[C@@H](C)[C@@](O)(O2)C(=O)C(=O)N2CCCC[C@H]2C(=O)O[C@H]([C@H](C)C[C@@H]2CC[C@@H](O)[C@H](OC)C2)CC(=O)[C@H](C)/C=C(\C)[C@@H](O)[C@@H](OC)C(=O)[C@H](C)C[C@H](C)/C=C/C=C/C=C/1C [rapamycin]	about 70%	about 70%	62-70%		
NRF2 dsRNA: dsRNA against NRF2: 5'-UAAAGUGGCUGCUCAGAAUUU-3' (SEQ ID NO 20) and 5'-pAUUCUGAGCAGCCACUUUAUU-3' (SEQ ID NO 21) (second strand carries 5' phosphate, otherwise chemistry not given here, further chemistry not given here)				38	26
